We go through eleven compounds from PubChem BioAssay (NCI).

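1) Cells in 96-well plates. 2) Compound, 48 h, 5 concentrations. 3) Linear interpolation between surrounding doses. 4) Unreached endpoint = highest concentration. At the GI50, growth is halved. TGI: total growth inhibition.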

Among the test systems are SN12C renal; MALME-3M melanoma; UACC-257 melanoma; TK-10 renal; HOP-92 NSCLC; OVCAR-4 ovarian; SR leukemia; NCI-H23 lung; UACC-62 melanoma; CCRF-CEM leukemia.
Common to all, as to experiment: DTP human tumour cell line panel, 48 h

One may read the TGI as the concentration giving total growth inhibition. Consider `OCC1OC(N2CCN(C3OC(CO)C(O)C(O)C3O)CC2)C(O)C(O)C1O` (stereo unspecified), for which the TGI in the assay with SN12C renal, with MALME-3M melanoma, with UACC-257 melanoma, in the assay with TK-10 renal, with HOP-92 NSCLC and in the assay with OVCAR-4 ovarian was greater than 100 µM in each case. Moreover, the TGI with SR leukemia, with NCI-H23 lung and with UACC-62 melanoma was greater than 100 µM throughout.

Take `O=S(=O)(O)c1ccc([Se][Se]c2ccc(S(=O)(=O)O)cc2)cc1`: the TGI in the assay on SN12C renal, in the assay with MALME-3M melanoma, with UACC-257 melanoma, in the assay with TK-10 renal, with HOP-92 NSCLC and with CCRF-CEM leukemia was greater than 100 µM in each case. In addition, the TGI in the assay on OVCAR-4 ovarian is greater than 100 µM; in the assay on SR leukemia, 96.6 µM; in the assay on NCI-H23 lung, greater than 100 µM; in the assay on UACC-62 melanoma it was greater than 100 µM.

Usually GI50 stands for the concentration at which growth is held to half of that of the control. Turning to `C[C@H]1O[C@@H](O[C@H]2[C@@H](O)C[C@H](O[C@H]3[C@@H](O)C[C@H](O[C@H]4CC[C@]5(C)C6CC[C@]7(C)[C@@H](C8=CC(=O)OC8)CC[C@]7(O)C6CC[C@@H]5C4)O[C@@H]3C)O[C@@H]2C)C[C@H](O)[C@@H]1O` (stereo partly specified), the GI50 was 0.0167 µM in the assay on SN12C renal; 0.019 µM in the assay on MALME-3M melanoma; 0.0203 µM with UACC-257 melanoma; 0.0165 µM with TK-10 renal; 0.0354 µM in the assay on HOP-92 NSCLC; 0.0117 µM in the assay on NCI-H23 lung. For the same compound, in the assay on UACC-62 melanoma, the GI50 is 0.0192 µM. The total growth inhibition concentration (TGI) in the assay with SN12C renal was found to be 0.112 µM; in the assay with MALME-3M melanoma, 0.0783 µM; with UACC-257 melanoma, 0.0734 µM; in the assay on TK-10 renal it was 0.0504 µM; in the assay with HOP-92 NSCLC it was 0.149 µM; in the assay with OVCAR-4 ovarian, 0.0732 µM. For the same compound, the TGI with SR leukemia was 0.0512 µM; in the assay on NCI-H23 lung, 0.0355 µM; in the assay on UACC-62 melanoma, 0.075 µM.

For the compound `COc1cc(-c2cc(-c3ccc(Nc4nc(Nc5ccc(Cl)cc5)nc(Nc5ccc(Cl)cc5)n4)cc3)no2)cc(OC)c1OC`, the GI50 in the assay on SN12C renal was 39.1 µM; with MALME-3M melanoma it was 50.3 µM; in the assay with UACC-257 melanoma, 23.5 µM; with TK-10 renal, 25.4 µM; with HOP-92 NSCLC, 0.0166 µM; in the assay on CCRF-CEM leukemia, 2.16 µM. In addition, the GI50 was 57.1 µM in the assay on OVCAR-4 ovarian, 1.92 µM in the assay on SR leukemia, 18 µM in the assay with NCI-H23 lung and 71.7 µM with UACC-62 melanoma. The TGI was greater than 100 µM with SN12C renal; greater than 100 µM in the assay on MALME-3M melanoma; greater than 100 µM with UACC-257 melanoma; greater than 100 µM with TK-10 renal; 0.32 µM in the assay on HOP-92 NSCLC; 11.9 µM with CCRF-CEM leukemia. In addition, the TGI in the assay on OVCAR-4 ovarian was greater than 100 µM; in the assay on SR leukemia, 21.6 µM; in the assay on NCI-H23 lung it was greater than 100 µM; with UACC-62 melanoma, greater than 100 µM.

With `CC(=O)Nc1ccc2c(c1)[nH]c(=O)c1cc(NC(C)=O)ccc12`, the GI50 was greater than 100 µM in the assay on SN12C renal; greater than 100 µM with MALME-3M melanoma; greater than 100 µM in the assay with UACC-257 melanoma; greater than 100 µM in the assay with TK-10 renal; 31.9 µM in the assay on HOP-92 NSCLC; 53.5 µM in the assay with CCRF-CEM leukemia. The GI50 with OVCAR-4 ovarian is greater than 100 µM; with SR leukemia, 15.5 µM; in the assay with NCI-H23 lung it was greater than 100 µM; in the assay on UACC-62 melanoma it was greater than 100 µM. Moreover, the TGI in the assay on SN12C renal, with MALME-3M melanoma, in the assay on UACC-257 melanoma, with TK-10 renal, in the assay on HOP-92 NSCLC and with CCRF-CEM leukemia was greater than 100 µM each time. Moreover, the TGI with OVCAR-4 ovarian was greater than 100 µM; with SR leukemia it was 53.4 µM; in the assay on NCI-H23 lung, greater than 100 µM; in the assay on UACC-62 melanoma, greater than 100 µM.

For the compound `O=Cc1cc2sc(C=O)cc2s1`, the TGI with SN12C renal, in the assay with MALME-3M melanoma, in the assay with UACC-257 melanoma, in the assay on TK-10 renal, in the assay with HOP-92 NSCLC and in the assay with CCRF-CEM leukemia was greater than 100 µM in each case. Besides, the TGI in the assay with OVCAR-4 ovarian, with SR leukemia, with NCI-H23 lung and in the assay with UACC-62 melanoma was greater than 100 µM in each case.

For the compound `COc1ccc(-c2oc(C=Nc3ccccc3)c([N+](=O)[O-])c2-c2ccc(OC)c(OC)c2)cc1OC`, the TGI with SN12C renal, in the assay on MALME-3M melanoma, with UACC-257 melanoma, with TK-10 renal, in the assay on HOP-92 NSCLC and in the assay with OVCAR-4 ovarian was greater than 100 µM throughout. The TGI in the assay on SR leukemia, in the assay with NCI-H23 lung and with UACC-62 melanoma was greater than 100 µM throughout.

With `CN(N=O)N1C(=O)SCC(c2ccccc2)(c2ccccc2)C1=O`, the TGI in the assay on SN12C renal, in the assay with MALME-3M melanoma, in the assay with UACC-257 melanoma, in the assay with TK-10 renal, in the assay with HOP-92 NSCLC and in the assay with CCRF-CEM leukemia was greater than 100 µM each time. The TGI in the assay with SR leukemia, in the assay with NCI-H23 lung and in the assay with UACC-62 melanoma was greater than 100 µM each time.

Take `COc1ccc(C2[C@@H](Cl)C(=O)N2c2ccc(OC)cc2)cc1` (stereo partly specified): the TGI in the assay on SN12C renal was greater than 100 µM; in the assay on MALME-3M melanoma it was greater than 100 µM; with UACC-257 melanoma, greater than 100 µM; in the assay on TK-10 renal, greater than 100 µM; in the assay with HOP-92 NSCLC, 39.5 µM; with CCRF-CEM leukemia, greater than 100 µM. The TGI with SR leukemia, with NCI-H23 lung and in the assay with UACC-62 melanoma was greater than 100 µM in each case.

Regarding `Nc1nc(N)c2c(n1)NC(c1ccc(Cl)cc1)C1CCc3ccccc3C1=N2` (stereo unspecified), the GI50 in the assay on SN12C renal was 7.68 µM; with MALME-3M melanoma, 8.48 µM; with UACC-257 melanoma it was 7.07 µM; with TK-10 renal, 8.2 µM; in the assay with HOP-92 NSCLC it was 2.26 µM; in the assay on OVCAR-4 ovarian it was 6.45 µM. Also, the GI50 in the assay on SR leukemia is 1.73 µM; in the assay on NCI-H23 lung it was 4.88 µM; with UACC-62 melanoma, 3.66 µM. Moreover, the TGI with SN12C renal amounted to 21.7 µM; with MALME-3M melanoma, 22.8 µM; in the assay with UACC-257 melanoma it was 19.6 µM; in the assay on TK-10 renal it was 23.2 µM; in the assay with HOP-92 NSCLC, 9.83 µM; in the assay on OVCAR-4 ovarian, 21 µM. Moreover, the TGI with SR leukemia worked out at 5.01 µM; with NCI-H23 lung, 18 µM; with UACC-62 melanoma, 18.3 µM.

`C=C1C(=O)O[C@H]2[C@H]1CC/C(COC(=O)NCCc1ccc(Br)cc1)=C\CC[C@@]1(C)O[C@@H]21`: the GI50 is 2.09 µM in the assay on MALME-3M melanoma; 1.63 µM in the assay with UACC-257 melanoma; 1.73 µM in the assay with TK-10 renal; 1.28 µM with HOP-92 NSCLC; 0.279 µM with CCRF-CEM leukemia; 1.56 µM with OVCAR-4 ovarian. Moreover, the GI50 was 0.43 µM in the assay with SR leukemia and 1.72 µM with NCI-H23 lung. Further, the TGI came to 3.77 µM in the assay on MALME-3M melanoma; 3.09 µM with UACC-257 melanoma; 3.12 µM in the assay with TK-10 renal; 2.77 µM with HOP-92 NSCLC; 0.847 µM in the assay on CCRF-CEM leukemia; 3.29 µM in the assay with OVCAR-4 ovarian. Further, the TGI with SR leukemia is 2.91 µM; with NCI-H23 lung it was 3.84 µM.
